ChEMBL document CHEMBL3046480, “Synthesis of damnacanthal, a naturally occurring 9,10-anthraquinone and its analogues, and its biological evaluation against five cancer cell lines” (Med Chem Res, 2013)
The source made the active and inactive calls. The rule behind the calls is not given here.

What was measured:
[1] = Antioxidant activity measured after 3 min by ferric thiocyanate method; format: functional
[2] = tested on: DU-145; assay: Cytotoxicity against Homo sapiens (human) DU145 cells assessed as inhibition of cell survival after 96 hr by MTT assay; format: functional, cell-based
[3] = tested on: MES-SA; assay: Cytotoxicity against Homo sapiens (human) MES-SA cells assessed as inhibition of cell survival after 96 hr by MTT assay; format: functional, cell-based
[4] = Cytotoxicity against Homo sapiens (human) MES-SA/Dx5 cells assessed as inhibition of cell survival after 96 hr by MTT assay; format: functional, cell-based
[5] = tested on: MCF7; assay: Cytotoxicity against Homo sapiens (human) MCF7 cells assessed as inhibition of cell survival after 96 hr by MTT assay; format: functional, cell-based
[6] = Cytotoxicity against Homo sapiens (human) H460 cells assessed as inhibition of cell survival after 96 hr by MTT assay; format: functional, cell-based, NCI-H460
[7] = Antioxidant activity measured after 10 min by thiobarbituric acid method; format: functional
[8] = Homo sapiens, DU-145, 96 h, read-out: IC50
[9] = Homo sapiens, MCF7, 96 h, read-out: IC50
[10] = Homo sapiens, NCI-H460, 96 h, read-out: IC50
[11] = Homo sapiens, MES-SA, 96 h, read-out: IC50
[12] = Homo sapiens, MES-SA/Dx5, 96 h, read-out: IC50

Row | Molecule | Activity [1] | IC50 [2, 8] [µM] | IC50 ([3]; mes-sa) | IC50 ([4]; mes-sa/dx5) | IC50 [5, 9] [µM] | IC50 [6, 10] [µM] | IC50 ([2]; du-145) | IC50 ([5]; mcf7) | IC50 ([6]; nci-h460) | IC50 [3, 11] [µM] | Activity [7] | IC50 [4, 12] [µM]
1 | Cc1cc(C(C)(C)C)c(O)c(C(C)(C)C)c1 | Active | – | – | – | – | – | – | – | – | – | – | –
2 | COc1c(CBr)c(OC(C)=O)cc2c1C(=O)c1ccccc1C2=O | inactive | 5 | Not Active | Not Active | 6 | 26 | – | – | – | – | – | –
3 | COc1cc2c(c(OC)c1C)C(=O)c1ccccc1C2=O | inactive | – | Not Active | Not Active | – | – | Not Active | Not Active | Not Active | – | – | –
4 | O=C1c2ccccc2C(=O)c2c(O)cccc21 [1-HYDROXYANTHRAQUINONE] | inactive | – | Not Active | Not Active | – | – | Not Active | Not Active | Not Active | – | – | –
5 | O=Cc1c(O)cc2c(c1O)C(=O)c1ccccc1C2=O | Active | 42 | – | Not Active | 36 | 40 | – | – | – | 18 | Active | –
6 | O=C1c2ccccc2C(=O)c2c(O)ccc(O)c21 [QUINIZARIN] | inactive | – | Not Active | Not Active | – | – | Not Active | Not Active | Not Active | – | – | –
7 | COc1cc2c(c(OC)c1C(Br)Br)C(=O)c1ccccc1C2=O | inactive | 28 | – | – | 27 | 23 | – | – | – | 10 | – | 7
8 | CC(=O)Oc1cc2c(c(O)c1C)C(=O)c1ccccc1C2=O | inactive | 37 | Not Active | Not Active | 56 | 68 | – | – | – | – | – | –
9 | O=C1c2ccccc2C(=O)c2cc(Br)c(O)cc21 | inactive | – | Not Active | Not Active | – | – | Not Active | Not Active | Not Active | – | – | –
10 | O=C1c2ccccc2C(=O)c2cc(O)ccc21 [2-HYDROXYANTHRAQUINONE] | inactive | 72 | Not Active | Not Active | 69 | 66 | – | – | – | – | – | –
11 | COc1cc2c(c(O)c1CBr)C(=O)c1ccccc1C2=O | inactive | 26 | – | Not Active | 34 | 30 | – | – | – | 4 | – | –
12 | Cc1c(O)cc2c(c1O)C(=O)c1ccccc1C2=O [Rubiadin] | inactive | 32 | – | – | 56 | 42 | – | – | – | 38 | – | 35
13 | COc1ccc(OC)c2c1C(=O)c1ccccc1C2=O [1,4-DIMETHOXYANTHRAQUINONE] | inactive | 69 | Not Active | Not Active | 70 | 71 | – | – | – | – | – | –
14 | O=C1c2ccccc2C(=O)c2c(O)cc(O)cc21 [XANTHOPURPURIN] | inactive | 29 | – | – | 55 | 23 | – | – | – | 30 | – | 21
15 | COc1ccc(C)c2c1C(=O)c1ccccc1C2=O | inactive | 48 | – | Not Active | 55 | 54 | – | – | – | 19 | – | –
16 | COc1cc2c(c(OC)c1C=O)C(=O)c1ccccc1C2=O | inactive | 32 | – | Not Active | 55 | 65 | – | – | – | 5 | – | –

Row | Molecule | Activity [1] | IC50 [2, 8] [µM] | IC50 ([3]; mes-sa) | IC50 ([4]; mes-sa/dx5) | IC50 [5, 9] [µM] | IC50 [6, 10] [µM] | IC50 ([2]; du-145) | IC50 ([5]; mcf7) | IC50 ([6]; nci-h460) | IC50 [3, 11] [µM] | Activity [7] | IC50 [4, 12] [µM]
17 | O=C1c2ccccc2C(=O)c2c(Br)cc(O)cc21 | inactive | 44 | – | – | 27 | 43 | – | – | – | 56 | – | 29
18 | COc1c(C)c(OC(C)=O)cc2c1C(=O)c1ccccc1C2=O | inactive | 27 | Not Active | Not Active | 26 | – | – | – | Not Active | – | – | –
19 | COc1c(C=O)c(O)c(Br)c2c1C(=O)c1ccccc1C2=O | inactive | 34 | Not Active | Not Active | 19 | 32 | – | – | – | – | – | –
20 | COc1c(C=O)c(O)cc2c1C(=O)c1ccccc1C2=O [DAMNACANTHAL] | Active | 26 | Not Active | Not Active | 11 | 25 | – | – | – | – | Active | –
21 | O=C1c2ccccc2C(=O)c2c1ccc(O)c2O | Active | – | – | – | – | – | – | – | – | – | Active | –
22 | VITAMIN E | Active | – | – | – | – | – | – | – | – | – | – | –
23 | Cc1c(O)c(Br)c2c(c1O)C(=O)c1ccccc1C2=O | inactive | 31 | – | – | 28 | 19 | – | – | – | 20 | – | 30
24 | CCOCc1c(OC(C)=O)cc2c(c1OC)C(=O)c1ccccc1C2=O | inactive | 23 | Not Active | Not Active | 30 | – | – | – | Not Active | – | – | –
25 | Cc1ccc(O)c2c1C(=O)c1ccccc1C2=O | inactive | – | Not Active | Not Active | – | – | Not Active | Not Active | Not Active | – | – | –
26 | O=C1c2ccccc2C(=O)c2c(O)cc(Br)cc21 | inactive | – | Not Active | Not Active | – | – | Not Active | Not Active | Not Active | – | – | –
27 | O=C1c2ccccc2C(=O)c2c(Br)ccc(O)c21 | inactive | 27 | – | – | 36 | 20 | – | – | – | 14 | – | 20
28 | COc1ccc(O)c2c1C(=O)c1ccccc1C2=O | inactive | 74 | Not Active | Not Active | 79 | 82 | – | – | – | – | – | –
29 | CCOCc1c(O)cc2c(c1OC)C(=O)c1ccccc1C2=O | inactive | 50 | Not Active | Not Active | 35 | – | – | – | Not Active | – | – | –
30 | CCOCc1c(OC)cc2c(c1OC)C(=O)c1ccccc1C2=O | inactive | – | Not Active | Not Active | – | – | Not Active | Not Active | Not Active | – | – | –
31 | COc1cc2c(c(OC)c1CBr)C(=O)c1ccccc1C2=O | inactive | 4 | – | – | 8 | 5 | – | – | – | 2 | – | 2
32 | COc1ccc2c(c1)C(=O)c1ccccc1C2=O [2-METHOXYANTHRAQUINONE] | inactive | 70 | Not Active | Not Active | 68 | 68 | – | – | – | – | – | –
